Assay results taken from US20210206763A1, “Anti-Proliferative Agents” (FEMTOGENIX LIMITED, priority 2015, published 2021).
pIC50: −log10 of the molar value.

What was measured:
HexA DNA fragment = experiment: DNA footprinting; assay type: binding; conditions: overnight incubation of ligand-DNA complexes
Method: (§1) The DNA sequence selectivity profile of selected molecules was investigated using a modification of the previously established DNA footprinting assay ^[32]. Following an overnight incubation of the ligand-DNA complexes, the mixture was mixed with strand separation buffer containing 10 mM EDTA, 10 mM NaOH, 0.1% bromophenol blue, 80% formamide and incubated at 100° C. for 3 min. The mixture was then immediately cooled on ice and run on an 8% denaturing gel. […] 93 (solid black line) also interacts with two further sites. The PBD dimer Talirine (green) illustrates a different binding pattern to 73, 76, 81, 88 and 93. Strong DNA footprints are represented by solid lines and weaker footprints are represented by hatched lines. […] Strong DNA footprints are represented by solid lines, and weaker footprints are represented by hatched lines
(§2) Footprinting reactions were performed as previously described ^[36] using the DNA fragments HexA and HexB, which together contain all 64 symmetrical hexanucleotide sequences^[6], and MS1 that contains all possible […] tetranucleotide sequences ^[38]. The DNA fragments were obtained by cutting the parent plasmids with HindIII and SacI (for HexA and MS1) or EcoRI and PstI (for HexB), and were labelled at the 3′-end of the HindIII or EcoRI sites with [α-^32P]dATP using reverse transcriptase or exo-Klenow fragment. After gel purification, the radiolabelled DNA was dissolved in 10 mM Tris-HCl pH 7.5 containing 0.1 mM EDTA, at a concentration of about 10 c.p.s per μL as determined on a hand held Geiger counter. 1.5 μL of radiolabelled DNA was mixed with 1.5 μL ligand that had been freshly diluted in 10 mM Tris-HCl pH 7.5, containing 10 mM NaCl. The complexes were left to equilibrate for at least 12 hours before digesting with 2 μL DNase I (final concentration about 0.01 units/mL). The reactions were stopped after 1 minute by adding 4 μL of formamide containing 10 mM EDTA and bromophenol blue (0.1% w/v). The samples were then heated at 100° C. for 3 minutes before loading onto 8% denaturing polyacrylamide gels containing 8 M urea. Gels were fixed in 10% acetic acid, transferred to 3MM paper, dried and exposed to a phosphor screen overnight, before analysing with a Typhoon phosphorimager

MS1 DNA fragment = experiment: DNA footprinting; assay type: binding; conditions: overnight incubation of ligand-DNA complexes
Method: as §1, §2

MDA-MB-453 = experiment: In vitro cytotoxicity of free payloads, MTT assay; assay type: cell-based; conditions: Homo sapiens, 72 hour incubation
Method: (§3) The in vitro cytotoxicity of compounds 73, 76, 81, 88 and 93 were evaluated in the JIMT-1, MCF-7, MDA-MB-453 and SK-BR-3 (all breast cancer) cell lines using the standard MIT assay for a 72 hour incubation period (Table 3).
(§4) Tumor cell lines were maintained in RPMI1640 medium supplemented with 10% heat-inactivated fetal bovine serum, 2 mM L-glutamine and 1 mM sodium pyruvate. 1800 cells per well were seeded in a volume of 180 μl in a 96-well flat bottom polystyrene plate. The cells were allowed to adhere overnight at 37° C. in a CO2 incubator. Ligands were initially formulated in DMSO, and stocks stored at −80° C. They were then further formulated at lox concentration in RPMI1640 medium. 20 ul of diluted samples were added into each treatment well. On each plate, blank wells with no cells, and untreated wells containing cells, were included. Plates were then cultured at 37° C. in a CO2 incubator for 72 hrs. Cytotoxicity was evaluated using a tetrazolium salt-based assay, the MIT assay. After 72 hours, the supernatant was removed from each well and 200 μl of a sterile filtered 500 μg/ml MTT solution in water added to each well. The plates were then incubated at 37° C. in a CO2 incubator for 4 hrs. The supernatant was then removed and the formazan crystals formed solubilized by adding 15(411 of DMSO to each well. The plate was then read on a plate reader at 540 nm, and percentage cell survival calculated as follows: ((mean absorbance treated wells at concentration x−mean absorbance blank wells)÷(mean absorbance untreated wells at concentration x−mean absorbance blank wells))×100. Data were plotted as concentration in nM vs. % cell survival in Microsoft Excel, and IC50 values (concentration where cell survival is reduced by a half) were determined from the graph.

MCF-7 = experiment: In vitro cytotoxicity of free payloads, MTT assay; assay type: cell-based; conditions: Homo sapiens, MCF7; 72 hour incubation
Method: as §3, §4

JIMT-1 = experiment: In vitro cytotoxicity of free payloads, MTT assay; assay type: cell-based; conditions: Homo sapiens, 72 hour incubation
Method: as §3, §4

SK-BR-3 = experiment: In vitro cytotoxicity of free payloads, MTT assay; assay type: cell-based; conditions: Homo sapiens, 72 hour incubation
Method: as §3, §4

| SMILES | number of preferred binding sites observed in HexA (HexA DNA fragment) | number of preferred binding sites observed in MS1 (MS1 DNA fragment) | pIC50 (MDA-MB-453) | pIC50 (MCF-7) | pIC50 (JIMT-1) | pIC50 (SK-BR-3) | further sequences bound in MS1 not occupied by 73, 76, 81 and 88 (MS1 DNA fragment) |
| --- | --- | --- | --- | --- | --- | --- | --- |
| COc1cc2c(cc1OCCCC(=O)Nc1cc(C(=O)Nc3ccc(-c4cc(C(=O)Nc5ccccc5)n(C)c4)cc3)n(C)c1)N=C[C@@H]1CCCCN1C2=O [Compound 73, (S)-4-(4-((2-Methoxy-12-oxo-6a,7,8,9,10,12-hexahydrobenzo[e]pyrido[1,2-a][1,4]diazepin-3-yl)oxy)butanamido)-1-methyl-N-(4-(1-methyl-5-(phenylcarbamoyl)-1H-pyrrol-3-yl)phenyl)-1H-pyrrole-2-carboxamide] | five | six | 9.70 | 9.38 | 9.48 | 9.57 | – |
| COc1cc2c(cc1OCCCC(=O)Nc1cc(C(=O)Nc3ccc(-c4cc(C(=O)Nc5ccc(C)cc5)n(C)c4)cc3)n(C)c1)N=C[C@@H]1CCCCN1C2=O [Compound 76, (S)-4-(4-((2-Methoxy-12-oxo-6a,7,8,9,10,12-hexahydrobenzo[e]pyrido[1,2-a][1,4]diazepin-3-yl)oxy)butanamido)-1-methyl-N-(4-(1-methyl-5-(p-tolylcarbamoyl)-1H-pyrrol-3-yl)phenyl)-1H-pyrrole-2-carboxamide] | five | six | 9.72 | 9.28 | 9.37 | 9.54 | – |
| COC(=O)c1ccc(NC(=O)c2cc(-c3ccc(NC(=O)c4cc(NC(=O)CCCOc5cc6c(cc5OC)C(=O)N5CCCC[C@H]5C=N6)cn4C)cc3)cn2C)cc1 [Compound 81, Methyl (S)-4-(4-(4-(4-(4-((2-methoxy-12-oxo-6a,7,8,9,10,12-hexahydrobenzo[e]pyrido[1,2-a][1,4]diazepin-3-yl)oxy)butanamido)-1-methyl-1H-pyrrole-2-carboxamido)phenyl)-1-methyl-1H-pyrrole-2-carboxamido)benzoate] | five | six | 9.38 | 8.85 | 9.30 | 9.48 | – |
| COc1cc2c(cc1OCCCC(=O)Nc1cc(C(=O)Nc3ccc(-c4cn(C)c(C(=O)Nc5ccccc5)n4)cc3)n(C)c1)N=C[C@@H]1CCCCN1C2=O [Compound 88, (S)-4-(4-(4-(4-((2-Methoxy-12-oxo-6a,7,8,9,10,12-hexahydrobenzo[e]pyrido[1,2-a][1,4]diazepin-3-yl)oxy)butanamido)-1-methyl-1H-pyrrole-2-carboxamido)phenyl)-1-methyl-N-phenyl-1H-imidazole-2-carboxamide] | five | six | 9.89 | 9.22 | 9.43 | 10.22 | – |
| COc1cc2c(cc1OCCCC(=O)Nc1cn(C)c(C(=O)Nc3ccc(-c4cc(C(=O)Nc5ccccc5)n(C)c4)cc3)n1)N=C[C@@H]1CCCCN1C2=O [Compound 93, (S)-4-(4-((2-Methoxy-12-oxo-6a,7,8,9,10,12-hexahydrobenzo[e]pyrido[1,2-a][1,4]diazepin-3-yl)oxy)butanamido)-1-methyl-N-(4-(1-methyl-5-(phenylcarbamoyl)-1H-pyrrol-3-yl)phenyl)-1H-imidazole-2-carboxamide] | – | – | 9.74 | 8.70 | 9.43 | 10.05 | two |
